Data from PubChem BioAssay (NCI).
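Results reflect a 48-hour exposure of cells in 96-well plates to compound at five concentrations. The concentration for full growth arrest is given as TGI.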

Legend:
Experiment in all cases: NCI tumour cell line growth inhibition, 48 h
[1] = system: 786-0 renal
[2] = system: A498 renal
[3] = system: A549 NSCLC
[4] = system: ACHN renal
[5] = system: BT-549 breast
[6] = system: CAKI-1 renal
[7] = system: CCRF-CEM leukemia
[8] = system: COLO 205 colon
[9] = system: DU-145 prostate
[10] = system: EKVX NSCLC
[11] = system: HCC-2998 colon
[12] = system: HCT-15 colon
[13] = system: HOP-62 NSCLC
[14] = system: HOP-92 NSCLC
[15] = system: HS 578T breast
[16] = system: HT29 colon
[17] = system: IGROV1 ovarian
[18] = system: K-562 leukemia
[19] = system: KM12 colon
[20] = system: LOX IMVI melanoma
[21] = system: M14 melanoma
[22] = system: MALME-3M melanoma
[23] = system: MCF7 breast
[24] = system: MDA-MB-231 breast
[25] = system: MDA-MB-435
[26] = system: MDA-N
[27] = system: MOLT-4 leukemia
[28] = system: NCI-H226 lung
[29] = system: NCI-H23 lung
[30] = system: NCI-H522 lung
[31] = system: NCI/ADR-RES ovarian
[32] = system: OVCAR-3 ovarian
[33] = system: OVCAR-4 ovarian
[34] = system: OVCAR-5 ovarian
[35] = system: OVCAR-8 ovarian
[36] = system: PC-3 prostate
[37] = system: RPMI-8226 leukemia
[38] = system: RXF 393 renal
[39] = system: SF-268 CNS
[40] = system: SF-295 CNS
[41] = system: SF-539 CNS
[42] = system: SK-MEL-2 melanoma
[43] = system: SK-MEL-28 melanoma
[44] = system: SK-MEL-5 melanoma
[45] = system: SK-OV-3 ovarian
[46] = system: SN12C renal
[47] = system: SNB-19 CNS
[48] = system: SNB-75 CNS
[49] = system: SR leukemia
[50] = system: SW-620 colon
[51] = system: TK-10 renal
[52] = system: U251 CNS
[53] = system: UACC-257 melanoma
[54] = system: UACC-62 melanoma
[55] = system: UO-31 renal
[56] = system: HCT-116 colon
[57] = system: HL-60(TB) leukemia
[58] = system: NCI-H460 lung

Nc1ccc(-c2nc3ccc(F)cc3s2)cc1Cl
TGI [1]: > 100 µM | TGI [2]: > 100 µM | TGI [3]: > 100 µM | TGI [4]: > 100 µM | TGI [5]: > 100 µM | TGI [6]: > 100 µM | TGI [7]: > 100 µM | TGI [8]: > 100 µM | TGI [9]: > 100 µM | TGI [10]: > 100 µM | TGI [11]: > 100 µM | TGI [12]: > 100 µM | TGI [13]: > 100 µM | TGI [14]: > 100 µM | TGI [15]: > 100 µM | TGI [16]: > 100 µM | TGI [17]: > 100 µM | TGI [18]: > 100 µM | TGI [19]: > 100 µM | TGI [20]: > 100 µM | TGI [21]: > 100 µM | TGI [22]: > 100 µM | TGI [23]: > 100 µM | TGI [24]: 99.5 µM | TGI [25]: > 100 µM | TGI [26]: > 100 µM | TGI [27]: > 100 µM | TGI [28]: > 100 µM | TGI [29]: > 100 µM | TGI [30]: > 100 µM | TGI [31]: > 100 µM | TGI [32]: > 100 µM | TGI [33]: > 100 µM | TGI [34]: > 100 µM | TGI [35]: > 100 µM | TGI [36]: > 100 µM | TGI [37]: > 100 µM | TGI [38]: > 73.8 µM | TGI [39]: > 100 µM | TGI [40]: > 89.2 µM | TGI [41]: > 100 µM | TGI [42]: > 100 µM | TGI [43]: > 100 µM | TGI [44]: > 100 µM | TGI [45]: > 100 µM | TGI [46]: > 100 µM | TGI [47]: > 100 µM | TGI [48]: > 59.9 µM | TGI [49]: > 100 µM | TGI [50]: > 100 µM | TGI [51]: > 100 µM | TGI [52]: > 100 µM | TGI [53]: > 100 µM | TGI [54]: > 100 µM | TGI [55]: > 100 µM

CC(=O)C(C)C(=O)N1C(=O)N(C)C2(C)N(C)C(=O)NC12C (configuration not stated)
TGI [1]: > 100 µM | TGI [3]: > 100 µM | TGI [4]: > 100 µM | TGI [5]: > 100 µM | TGI [6]: > 100 µM | TGI [8]: > 100 µM | TGI [9]: > 100 µM | TGI [10]: > 100 µM | TGI [11]: > 100 µM | TGI [56]: > 100 µM | TGI [12]: > 100 µM | TGI [57]: > 100 µM | TGI [13]: > 100 µM | TGI [14]: > 100 µM | TGI [15]: > 100 µM | TGI [16]: > 100 µM | TGI [17]: > 100 µM | TGI [19]: > 100 µM | TGI [21]: > 100 µM | TGI [22]: > 100 µM | TGI [23]: > 100 µM | TGI [24]: > 100 µM | TGI [25]: > 100 µM | TGI [26]: > 100 µM | TGI [29]: > 100 µM | TGI [58]: > 100 µM | TGI [30]: > 100 µM | TGI [31]: > 100 µM | TGI [32]: > 100 µM | TGI [33]: > 100 µM | TGI [34]: > 100 µM | TGI [37]: > 100 µM | TGI [39]: > 100 µM | TGI [40]: > 100 µM | TGI [41]: > 100 µM | TGI [42]: > 100 µM | TGI [43]: > 100 µM | TGI [44]: > 100 µM | TGI [45]: > 100 µM | TGI [46]: > 100 µM | TGI [47]: > 100 µM | TGI [48]: > 100 µM | TGI [49]: > 100 µM | TGI [51]: > 100 µM | TGI [52]: > 100 µM | TGI [54]: > 100 µM | TGI [55]: > 100 µM
